Test results from US20250041313A1, “COMBINATION THERAPY FOR TREATMENT OF CANCER” (CITY OF HOPE, priority 2023, published 2025).

Assays:
[1] = system: H524 cells; assay: CCK-8 cytotoxicity assay, 72 h; format: cell-based; settings: Homo sapiens, NCI-H524
Description: (§1) We have determined cell cytotoxicity toward a specific drug, employing Cell Counting Kit-8 (Dojindo Molecular Technologies, Rockville, MD) as previously described (15).
(§2) The expression levels of DRP1 and DHODH in SCLC lines were compared with non-malignant BEAS 2B cells. Elevated levels of DRP1 and pDRP1 at Ser^616 were detected in all tested SCLC cells. Higher expression of DHODH was also observed in all seven SCLC cell lines (FIG. 1C). Previous studies have shown that Leflu and its active metabolite Teri regulate mitochondrial morphology (9,10,26). To find the effects of these two drugs on DRP1, AA docking (27) method was used to search for the best binding pocket for inhibitor binding. […] Leflu has a medium docking score of −5.6 kcal/mol. […] In vitro cytotoxicity effect of Teri and Leflu was tested in a panel of SCLC cell lines. Ten SCLC cell lines were treated with increasing concentrations of each drug for 72 h. […] In contrast, IC50 doses were much higher for Leflu. Upon oral administration of Leflu, over 80% of the drug is converted to Teri (28), indicating a potential reason for higher sensitivity to Teri. Two cell lines, SBC3 and SBC5, with IC50 2 μM and 30 μM, respectively, for Teri were used for additional experiments. […] The inhibitory effect was higher with Teri in both cell lines (FIG. 2A).

[2] = system: H146 cells; assay: CCK-8 cytotoxicity assay, 72 h; format: cell-based; settings: Homo sapiens, NCI-H146
Description: as §1, §2

[3] = system: H82 cells; assay: CCK-8 cytotoxicity assay, 72 h; format: cell-based; settings: Homo sapiens, NCI-H82
Description: as §1, §2

[4] = system: H345 cells; assay: CCK-8 cytotoxicity assay, 72 h; format: cell-based; settings: Homo sapiens, NCI-H345
Description: as §1, §2

[5] = system: DMS273 cells; assay: CCK-8 cytotoxicity assay, 72 h; format: cell-based; settings: Homo sapiens, DMS-273
Description: as §1, §2

[6] = system: DMS114 cells; assay: CCK-8 cytotoxicity assay, 72 h; format: cell-based; settings: Homo sapiens, DMS-114
Description: as §1, §2

[7] = system: H526 cells; assay: CCK-8 cytotoxicity assay, 72 h; format: cell-based; settings: Homo sapiens, NCI-H526
Description: as §1, §2

[8] = system: SBC5 cells; assay: Imaris quantification of mitochondrial and nuclear areas/morphology; format: cell-based, human; settings: for effect on mitochondrial areas: SBC5
Experimental: (§3) Imaris 9.9.0 (Bitplane, AG), with Surfaces and Cells modules, was used to generate mitochondria morphology data from 2D images and 2D Z-stack subsets. Surfaces were used to evaluate individual mitochondria from cell monolayers and spheroids. Detection parameters were optimized for visible mitochondria and nuclei in each group with varying signal intensities. Roundness ratios were calculated from Surface generated Bounding Box 00 Length measurements. Object lengths less than 0.1 μm were excluded, and lengths greater than 1.26 μm were separately analyzed as clusters. Thresholds were uniformly applied to roundness ratios to categorize mitochondria morphology as elongated (<0.599), intermediate (≥0.600-0.649), or round/fragmentated (≥0.650). The percentage of cells from total number is based on a ratio. A perfectly round object has a ratio of 1.0. The Cells module was used to detect and quantify mitochondria and nucleus area from cell monolayers. Identical parameters were applied to all groups with cell boundary detection based on mitochondria signals. Imaris includes nuclei in cytoplasm measurements, so mitochondrial area is calculated by subtracting nucleus area from cell cytoplasm area. Abnormal nuclei were excluded (<100 μm^2, >750 μm^2).
Next, we performed the same analysis with SBC5 cells. […] Mitochondrial elongation in SBC3 cells treated with Teri and Leflu is visible and correlates with Imaris Surface results. […] Although mitochondrial areas of SBC5 cells were not affected by Teri and Leflu treatments, elongations of individual mitochondria were detected with each treatment (FIG. 2I). […] Therefore, it is important to investigate the effects of Teri and Leflu on mitochondrial morphology and cell survival in combination with chemotherapeutic drugs.

[9] = system: SBC3 cells; assay: as above; format: cell-based, human
Experimental: as §3
MitoTracker Red and Hoechst 33342 were used to validate Teri and Leflu effects on intact mitochondrial morphology in SBC3 and SBC5 cells. M1 and MDIVI1 compounds were used as positive controls because they are promoters of mitochondrial fusion. Mitochondrial and nuclear areas were quantified by analyzing object surface area and intensity in Imaris 9.9.0.

[10] = system: SBC3 xenograft; assay: SBC3 mouse xenograft, Carbo/Leflu study; format: in vivo
Experimental: Athymic nude nu/nu mice were obtained from Charles River, Wilmington, MA, and were acclimated for a week before beginning the experiment. All animal experiments were carried out in accordance with a protocol approved by the Institutional Animal Care and Use Committee COH (IACUC #16004). For treatments, mice were divided into 4 groups with five mice per group and subcutaneously injected into one flank with 2×10^6 SBC3 or SBC5 cells suspensions in 100 μl of PBS. Treatment started on the 14th day when tumors became palpable. Two in vivo studies were done in this project. SBC3 and SBC 5 xenograft with i) vehicle control, ii) […] 50 mg/kg, iii) Leflu 7.5 mg/kg, and iv) […]/Leflu. SBC3 with i) vehicle control, ii) Lur 0.5 mg/kg, iii) Leflu 3.8 mg/kg, and iv) Lur/Leflu. Treatments were given to mice via i.p. twice a week for 6 weeks. Animals were examined daily for signs of tumor growth. Tumors were measured in two dimensions using calipers and body weights were recorded. Animals were photographed on days 1, 5, 10, 15, 20, 25, 30, 35, and 40 after treatment. Tumors were removed on day 40 and photographed. At the end of the study, the mice were euthanized by CO2 asphyxiation followed by cervical dislocation. The tumor weights were compared between groups using an unpaired Student's t-test. A portion of the tumor was fixed in 10% buffered formaldehyde solution and paraffin-embedded for immuno-staining. FFPE tumor sections were stained with pDRP Ser^616 antibody. Tumor sections were deparaffinized and rehydrated, followed by heat-mediated antigen retrieval (pH 6, Dako). After permeabilization and blocking, tumor sections were stained with pDRP1 Ser^616 antibody overnight, washed and incubated with Alexa 488 secondary antibody for one hour, mounted and observed on an LSM 880 with a 10×/0.45 NA objective (Carl Zeiss). Immunofluorescent confocal images were acquired for each treatment (magnification:100×). Mean immunofluorescence intensities were calculated with ZEN 2.3 Lite software.

[11] = system: SCLC; settings: relapsed / second-line SCLC patients; cited from earlier work

Q: Which IC50 [1] does the source give for `C/C(O)=C(\C#N)C(=O)Nc1ccc(C(F)(F)F)cc1` [Teriflunomide, teriflunomide] here?
A: Its IC50 is 10.8 µM.

Q: What about the IC50 [2] of the same compound?
A: Its IC50 is 8.6 µM.

Q: What about the IC50 [3] of the same compound?
A: Its IC50 is 7.2 µM.

Q: And the IC50 [4]?
A: Its IC50 is > 43.7 µM.

Q: What about the IC50 [5] of the same compound?
A: Its IC50 is 43.7 µM.

Q: And the IC50 [6]?
A: The IC50 was 12.6 µM.

Q: What about the IC50 [7] of the same compound?
A: Its IC50 is 7.6 µM.

Q: And the “effect on mitochondrial areas” value [8]?
A: Its value is “not affected”.

Q: And the Nuclear area ([8]; SBC5, 10 μM)?
A: The Nuclear area was 369.5±6.15 μm^2.

Q: And the Nuclear area ([8]; SBC5, 20 μM)?
A: The Nuclear area was 369.8±5.94 μm^2.

Q: What about the “Mitochondrial elongation (Airyscan imaging)” value ([9]; SBC3) of the same compound?
A: Its value is “visible”.

Q: What about the Mitochondrial area ([9]; SBC3, 10 μM) of the same compound?
A: Its Mitochondrial area is 569±19.9 μm^2.

Q: And the “Nuclear size (area)” value ([9]; SBC3, 10 μM)?
A: Its value is 386.8±10.86 μm^2.

Q: And the Mitochondrial area ([9]; SBC3, 20 μM)?
A: Its Mitochondrial area is 604.8±28.9 μm^2.

Q: And the “Nuclear size (area)” value ([9]; SBC3, 20 μM)?
A: Its value is 423.5±16.57 μm^2.

Q: Which IC50 [1] does the source give for `Cc1oncc1C(=O)Nc1ccc(C(F)(F)F)cc1` [Leflunomide, leflunomide] here?
A: The IC50 was 133 µM.

Q: And the IC50 [2]?
A: Its IC50 is 152 µM.

Q: What about the IC50 [3] of the same compound?
A: Its IC50 is 103 µM.

Q: What about the IC50 [4] of the same compound?
A: The IC50 was > 152 µM.

Q: And the IC50 [5]?
A: The IC50 was > 152 µM.

Q: What about the IC50 [6] of the same compound?
A: Its IC50 is > 152 µM.

Q: What about the IC50 [7] of the same compound?
A: Its IC50 is 48.3 µM.

Q: What about the “pDRP1 Ser616 immunofluorescence in tumor sections” value ([10]; SBC3 xenograft FFPE tumors) of the same compound?
A: Its value is “significant decrease”.

Q: And the “reduction in tumor size/weight” value ([10]; SBC3 xenograft, day 40, vs control)?
A: The value was ~36%.

Q: And the “average final tumor weight at end of study (day 40)” value ([10]; SBC3 xenograft, Carbo 50 mg/kg, Leflu 7.5 mg/kg, i.p. twice a week)?
A: Its value is 1.01 ± 0.14 g.

Q: And the “effect on mitochondrial areas” value [8]?
A: Its value is “not affected”.

Q: What about the Nuclear area ([8]; SBC5, 20 μM) of the same compound?
A: Its Nuclear area is 386.8±7.23 μm^2.

Q: And the “Mitochondrial elongation (Airyscan imaging)” value ([9]; SBC3)?
A: Its value is “visible”.

Q: And the “effect on mitochondrial or nuclear areas” value ([9]; SBC3)?
A: The value was “did not affect”.

Q: For `COc1ccc2[nH]c3c(c2c1)CCN[C@]31CS[C@@H]2c3c(OC(C)=O)c(C)c4c(c3[C@H](COC1=O)N1[C@@H]2[C@H]2c3c(cc(C)c(OC)c3O)C[C@@H]([C@@H]1O)N2C)OCO4` [Lurbinectedin, lurbinectedin], which ORR [11] is on record?
A: The ORR was 32.7%.

Q: What about the “median PFS” value [11] of the same compound?
A: The value was 3.5 months.
